According to paper PMC8066339, “Optimization of 2-Acylaminocycloalkylthiophene Derivatives for Activity against Staphylococcus aureus RnpA” (Antibiotics, 2021):
pIC50: −log10 of the molar value. Values joined by “and” are separate entries in the source; they are usually repeats but may differ in a detail not shown here. Equal values may be shown once. “Also recorded” adds a separate entry of the source. Read-outs that look alike come from different tables or passages of the source. Values belong to the molecule of their own block, whether it stands above or below them.

Columns and labels:
MTT cytotoxicity testing = conditions: human, HEP G2 cells (human liver epithelial cells)
Procedure: For the scaffold to have translational significance, it must be non-toxic to human cells. Accordingly, an initial assessment of toxicity was performed using human liver epithelial (HEP G2) cells via a 3-(4,5-dimethylthiazol-2-yl)-2,5-diphenyltetrazolium bromide (MTT) assay in the presence of up to 400 µM of each analog. […] Viability of 70% was used as the cut-off criteria for toxicity (Figure 4, dashed line), according to ISO guidelines, as described in Materials and Methods.
Human liver epithelial cells (HEP G2) were cultured in Dulbecco’s Modified Eagle Medium (DMEM; Fisher Scientific, Hampton, NH) supplemented with 10% heat inactivated fetal bovine serum (FBS; Corning Life Sciences) and 1% penicillin/streptomycin (Thermofisher Scientific). Cells were incubated at 37 °C with 5% CO2 in Nunc (Roskilde, Denmark) tissue culture flasks. Cells were grown in monolayers until exceeding 70% confluency, removed with 0.25% trypsin (Fisher Scientific), resuspended in fresh medium, and used to seed approximately 2.5 × 10^5 cells/mL into each well of a 96 well tissue culture microplate (Nunc) containing 200 µL of fresh medium. Cytotoxicity testing was conducted according to the guidelines of the International Organization for Standardization (ISO) 10993-5:2009. After 24 h of incubation, the cell media was removed, and adherent cells were washed with 1× phosphate buffered saline (PBS). Cell media was supplemented with 5% per volume of compound at final concentrations from 12.5 µM to 400 µM and incubated 20–24 h at 37 °C with 5% CO2. After incubation, medium supplemented with compound was removed from the wells and replaced with 100 µL of fresh culture medium. Then, 10 µL of 12 mM (3-(4,5-dimethylthiazol-2-yl)-2,5-diphenyltetrazolium bromide (MTT) stock reagent (CyQUANT MTT cell proliferation kit; Thermofisher Scientific) was added to each well. After labeling the cells with the MTT reagent, all but 25 µL of medium was removed from the wells, and 50 µL of DMSO was added to each well and mixed thoroughly and cells were incubated at 37 °C with 5% CO2 for 10 min. After incubation, wells were mixed again and using a SPECTRAmax5 microplate reader, absorbance was read at 540 nm. Cells were treated with 125 µg/mL mitomycin C (Fisher Scientific) to serve as a positive control and 2% DMSO as a negative control. […] All compounds were tested in two independent experiments in triplicate and cell viability was expressed as a percent of the negative control.

S. aureus strain UAMS-1 [1] = assay: Minimum inhibitory concentration (MIC) testing, CLSI broth microdilution; type: cell-based, Staphylococcus aureus; conditions: Staphylococcus aureus, UAMS1
Procedure: Staphylococcus aureus strains UAMS-1 is a well-characterized antibiotic susceptible osteomyelitis clinical isolate (Blevins Infect. Immun 2003). For experiments, UAMS-1 was cultured in Mueller Hinton (MH) broth and processed as described below. Escherichia coli strain BL21 (DE3) was cultured in Luria–Bertani (LB) and supplemented with ampicillin (50 µg ml^−1) where indicated.
Minimum inhibitory concentration (MIC) was performed according to the Clinical and Laboratory Standards Institute (CLSI) guidelines. Briefly, individual wells of a 96-well microtiter plate were inoculated with 10^4 colony forming units (CFU) of S. aureus UAMS-1 containing two-fold increasing concentrations (0 µM to 100 µM) of the indicated antibiotic or putative RnpA inhibitor and grown at 37 °C for 16 h in MH broth. The MIC was defined as the lowest concentration of compound in which there was no visible bacterial growth detected by the unaided eye.

S. aureus RnpA = target: T1, S. aureus RnpA (Staphylococcus aureus, UniProt P0A0H5); assay: In vitro RnpA mRNA degradation assay (RNase Alert FRET substrate); type: biochemical
T1 construct: made in house; host or cells: E. coli BL21 (DE3)
T1 sequence (P0A0H5 1-117): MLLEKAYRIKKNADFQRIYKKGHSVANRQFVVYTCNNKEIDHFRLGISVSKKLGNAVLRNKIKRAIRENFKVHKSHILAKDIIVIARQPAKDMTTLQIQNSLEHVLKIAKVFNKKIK
Procedure: (§1) His-tagged RnpA was purified as previously described. E. coli BL21 (DE3) cells harboring plasmid pEXP5-nt containing a hexahistidine tag fused to the N-terminus of S.aureus RnpA coding region were grown in LB supplemented with 50 µg mL^−1 ampicillin to OD600 = 0.6 and induced with 1mM isopropyl β-D-1-thiogalactopyranoside (IPTG) for three hours to induce protein expression. […] Cells were mechanically lysed by three passes at 18,000 psi through a French Pressure Cell Press (SLM-Aminco; Pittsford, NY, USA) and cell debris was removed by centrifugation at 17,000× g for 10 min at 4 °C. Supernatants were collected, filtered through a 0.2 micron syringe filter, then loaded onto a 5 mL HisPur cobalt column (ThermoFisher Scientific, Waltham, MA, U.S.A.) using the BioRad Maximizer Duo-Flow Medium Pressure Chromatography System. Protein was eluted using an imidazole gradient (80 mM to 500 mM). Fractions were assessed for RnpA presence and purity via SDS-PAGE analysis, Coomassie staining and Western blotting using an anti-His antibody (Invitrogen; Grand Island, NY, USA).
RnpA-mediated degradation was assessed using the Rnase Alert QC System (Thermofisher Scientific). 20 pmol of His-RnpA was combined with 0.4 μM (final concentration) FRET substrate and either DMSO (negative control) or compound ≤500 µM in 1× Rnase Alert Buffer. Reactions were assembled in 96-well PCR plates (BioRad) and incubated at 37 °C for 30 min in the BioRad CFX 96 Connect Real Time instrument, measuring fluorescence every 2 min at 490 nm excitation/520 nm emission. Percent inhibition of each compound was calculated at the 30 min time-point based on the following formula: (RFU of compound treated RnpA/RFU of DMSO-treated RnpA) × 100.

RNase P (RnpA + rnpB) = target: T2, RNase P (RnpA + rnpB) (Staphylococcus aureus, UniProt P0A0H5); assay: In vitro ptRNA^Tyr processing assay with reconstituted RNase P; type: biochemical; conditions: for pIC50: average of at least two tests
T2 construct: made in house; host or cells: E. coli BL21 (DE3)
T2 sequence (P0A0H5 1-117): T1 sequence (P0A0H5 1-117)
Procedure: as §1
rnpB and RNA substrates (spa, ptRNA^Tyr) for RnpA functional assays, as well as mature tRNA were synthesized in vitro, as previously described. Each gene was PCR amplified using S. aureus UAMS-1 chromosomal DNA as a template and the corresponding oligonucleotide primer pairs, in which the forward primers contained an RNA polymerase T7 promoter sequence. The following primer pairs were used in this study (T7 promoter underlined): T7-rnpB forward—[…] and rnpB reverse—[…]; T7-ptRNA^Tyr forward—[…] and ptRNA^Tyr reverse—TGGTGGAG GGGGGCAGATTC; T7-spa forward—[…] CGACGTCCAG and spa reverse—[…]. Resulting PCR products were analyzed on a 0.8% agarose gel and purified using the Qiagen QIAquick Gel Extraction kit, according to the manufacturer’s instructions. In vitro transcription was performed using the TranscriptAid T7 High Yield Transcription kit (Fermentas; Burlington, ON, Canada) following manufacturer’s instructions. Following in vitro transcription, the RNA was treated with DNase I for 90 min and re-purified using the Qiagen RNeasy Mini kit. RNA was quantified using a NanoDrop2000 spectrophotometer.
S.aureus Rnase P activity assays were performed as previously described. Briefly, ptRNA^Tyr and rnpB RNA was denatured by heating to 95 °C for 5 min then slow cooled to room temperature. RNA species were then combined with 2× low salt buffer (50 mM Tris-HCl pH 8.0, 5 mM MgCl2) and incubated for 5 min at 37 °C. Rnase P was reconstituted by mixing an equal molar ratio of His-RnpA and rnpB for 15 min at 37 °C. […] Then, 5 pmol ptRNA^Tyr was added to each reaction and incubated for an additional 30 min at 37 °C. Reactions were stopped with 2× RNA loading dye (Thermo Scientific) and heating to 65 °C for 10 min. Samples were electrophoresed on a 7M urea/8% polyacrylamide gel then stained with 0.5 µg mL^−1 ethidium bromide. The BioRad EZ Gel Doc imaging system was used to visualize the RNA and relative abundance of mature tRNA^Tyr in the DMSO control or in the samples containing compound and analyzed using BioRad Image Lab densitometry software. The percent inhibitory activity of each compound was calculated using the following equation: (% experimental processing/% processing negative control) × 100.

S. aureus UAMS-1 = assay: Fractional inhibitory concentration (FIC) testing with mupirocin; type: cell-based, Staphylococcus aureus; conditions: Staphylococcus aureus
Procedure: Fractional inhibitory concentration (FIC) testing was performed, as previously described. Briefly, each well of a 96-well microtiter plate was inoculated with 10^4 CFU of S. aureus UAMS-1 [42]. Each row of the plate was supplemented with two-fold increasing concentrations of mupirocin (0 µg mL^−1 to 2 µg mL^−1) whereas each column contained two-fold increasing concentrations of putative RnpA inhibitor compound (0.03, 0.0625, 0.125, 0.25, 0.5, 1, or 2× MIC). […] The FIC index was defined by the following formula: FIC = (MIC of Drug A in Combination/MIC of Drug A Alone) + (MIC of Drug B in Combination/MIC of Drug B Alone). A synergistic interaction was defined as a FIC value of ≤0.5, an additive interaction as 0.5–1, no interaction as 1–4 and antagonistic interaction as FIC ≥ 4, as described.

S. aureus = test system: S. aureus; design: method as in PMID 21347352, PMID 25605356, PMID 31035380; conditions: previously reported, Figure 1; cited from earlier work
S. aureus strain UAMS-1 [2] = test system: S. aureus strain UAMS-1; design: method as in Colquhoun et al. [34]; conditions: ref Colquhoun et al. [34]; cited from earlier work

Compound: CO[C@@]12[C@H](COC(N)=O)C3=C(C(=O)C(C)=C(N)C3=O)N1C[C@@H]1N[C@@H]12 [Mitomycin C, reference compound]
viability at 400 µM (MTT cytotoxicity testing): 54.8%

Compound: O=C(CF)Nc1sc2c(c1C(=O)Nc1cccc(Cl)c1)CCCCC2 [RNP0018]
MIC (S. aureus strain UAMS-1 [1]): > 200 µg/mL
pIC50 (S. aureus RnpA): 4.48
Inhibition of in vitro RnpA-mediated RNA degradation (in words) (S. aureus RnpA): good inhibitory properties; also recorded: exhibited inhibitory activity
Inhibition of in vitro RnpA ptRNA processing (in words) (RNase P (RnpA + rnpB)): good inhibitory properties
pIC50 (RNase P (RnpA + rnpB); ptRNA IC50, in vitro ptRNA^Tyr processing): 4.24
MIC (S. aureus UAMS-1; UAMS1, read-out: Cpd MIC, Dosed-Individually): > 500 µM

MIC (S. aureus UAMS-1; UAMS1, mupirocin alone, read-out: Mup MIC, Dosed-Individually): 0.5 µM
Compound: C/C(=C\C(=O)OCCCCCCCCC(=O)O)C[C@@H]1OC[C@H](C[C@@H]2O[C@H]2[C@@H](C)[C@H](C)O)[C@@H](O)[C@H]1O [Mup, mupirocin, reference compound]

Compound: Cc1cc(/C=C(/C#N)C(=O)Nc2cccc(Br)c2)c(C)n1-c1ccc(C(=O)O)cc1 [RNP1000]
S. aureus MIC (S. aureus): 34 to 69 µM

Compound: CC1CCN(C(=O)Nc2cc(Cl)cc(Cl)c2)CC1 [JC1]
S. aureus MIC (S. aureus): 3.4 µM

Compound: O=C(Nc1ccc(Cl)cc1)c1c(NC(=O)C(F)(F)F)sc2c1CCCCC2 [JR1]
MIC (S. aureus strain UAMS-1 [2]): 1.25 µM and 0.52 µg/mL
S. aureus MIC (S. aureus): 1.25 µM

MIC (S. aureus strain UAMS-1 [1]; S. aureus strain UAMS-1, read-out: MIC): > 200 µg/mL
Inhibition of in vitro RnpA-mediated RNA degradation (in words) (S. aureus RnpA): exhibited inhibitory activity
pIC50 (S. aureus RnpA; in vitro RnpA-mediated RNA degradation, read-out: mRNA IC50): 4.37
pIC50 (RNase P (RnpA + rnpB); in vitro ptRNA^Tyr processing, read-out: ptRNA IC50): < 3.60
MIC (S. aureus UAMS-1; UAMS1, compound alone, read-out: Cpd MIC, Dosed-Individually): > 500 µM
Compound: O=C(Nc1cccc(Cl)c1)c1c(NC(=O)C(F)F)sc2c1CCCCC2 [RNP0017]
Inhibition of in vitro RnpA ptRNA processing (in words) (RNase P (RnpA + rnpB)): did not appear to display any inhibition; also recorded: weak or no inhibitory activity
